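The compound was tested at five concentrations on cells cultured in 96-well plates, with a 48-hour exposure period. GI50: concentration for 50% inhibition of growth.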 Activity calls are given as the source filed them. Cut-off read from the data, not from the text of the source: active = GI50 up to about 1.1 µM and inactive = higher.
Experiments:
Experiment in all cases: NCI tumour cell line growth inhibition, 48 h
HCT-116 = system: HCT-116
TK-10 = system: TK-10
SW-620 = system: SW-620
CAKI-1 = system: CAKI-1
BT-549 = system: BT-549
LOX IMVI = system: LOX IMVI
A498 = system: A498
SK-OV-3 = system: SK-OV-3
OVCAR-5 = system: OVCAR-5
MOLT-4 = system: MOLT-4
RXF 393 = system: RXF 393
UACC-257 = system: UACC-257
HL-60 = system: HL-60
MCF7 = system: MCF7
SK-MEL-2 = system: SK-MEL-2
CCRF-CEM = system: CCRF-CEM
IGROV-1 = system: IGROV-1
SNB-75 = system: SNB-75

| SMILES | GI50 (HCT-116) | GI50 (TK-10) | GI50 (SW-620) | GI50 (CAKI-1) | GI50 (BT-549) | GI50 (LOX IMVI) | GI50 (A498) | GI50 (SK-OV-3) | GI50 (OVCAR-5) | GI50 (MOLT-4) | GI50 (RXF 393) | GI50 (UACC-257) | GI50 (HL-60) | GI50 (MCF7) | GI50 (SK-MEL-2) | GI50 (CCRF-CEM) | GI50 (IGROV-1) | GI50 (SNB-75) |
| --- | --- | --- | --- | --- | --- | --- | --- | --- | --- | --- | --- | --- | --- | --- | --- | --- | --- | --- |
| CC[C@H](C)C1=C(O)[N@+]2([O-])Oc3ccc(-c4c(O)c(O)c(-c5ccc(OC(C)=O)cc5)c(OC(C)=O)c4OC(C)=O)cc3O[C@]2([C@@H](C)CC)C(=O)N1O | 9.86 µM (inactive) | 25.5 µM (inactive) | 10.7 µM (inactive) | 34.4 µM (inactive) | 32.7 µM (inactive) | 12.9 µM (inactive) | 12.9 µM (inactive) | 15.4 µM (inactive) | 47.1 µM (inactive) | 12.7 µM (inactive) | > 50 µM (inactive) | > 50 µM (inactive) | 15.2 µM (inactive) | 24.2 µM (inactive) | > 50 µM (inactive) | 10.3 µM (inactive) | 8.85 µM (inactive) |  |
| CN(C)C(=S)N/N=C\C(=N/NC(=S)N(C)C)c1ccccc1 | 3.52 µM (inactive) | 6.87 µM (inactive) | 4.53 µM (inactive) | 7.24 µM (inactive) | > 22.2 µM (inactive) | 9.02 µM (inactive) | 7.21 µM (inactive) | 12.3 µM (inactive) | > 30.9 µM (inactive) | > 100 µM (inactive) | 7.36 µM (inactive) | > 23.4 µM (inactive) |  | 4.03 µM (inactive) | 3.96 µM (inactive) |  | 3.7 µM (inactive) | 13.4 µM (inactive) |
| O=[N+]([O-])c1cccc(/C=N/N=c2\ccc3ccccc3[nH]2)c1O | 0.526 µM (active) | 2.51 µM (inactive) | 0.632 µM (active) | 0.665 µM (active) | 3.78 µM (inactive) | 1.47 µM (inactive) | 5.68 µM (inactive) | 1.86 µM (inactive) | 3.08 µM (inactive) | 0.83 µM (active) | 2.07 µM (inactive) | 2.28 µM (inactive) | 0.619 µM (active) | 1.94 µM (inactive) | 4.4 µM (inactive) | 0.175 µM (active) | 2.02 µM (inactive) |  |
| COP(=O)(OC)C(O)/C=C/c1ccco1 (stereo not given) | > 100 µM (inactive) |  | > 100 µM (inactive) | > 100 µM (inactive) | > 100 µM (inactive) | > 100 µM (inactive) | > 100 µM (inactive) | > 100 µM (inactive) | > 100 µM (inactive) | > 100 µM (inactive) | > 100 µM (inactive) | > 100 µM (inactive) | > 100 µM (inactive) | > 100 µM (inactive) | > 100 µM (inactive) |  | > 100 µM (inactive) |  |
| Nc1ccn(C2OC(C(OC3OC(CO)C(O)C(N)C3O)C(O)C(O)C(O)C(O)CO)C(N)C(O)C2O)c(=O)n1 (stereo not given) | 46.3 µM (inactive) | 85.9 µM (inactive) | > 100 µM (inactive) | 61 µM (inactive) | 31.3 µM (inactive) | 21.7 µM (inactive) | > 100 µM (inactive) |  | 15 µM (inactive) | > 100 µM (inactive) |  | > 100 µM (inactive) | > 100 µM (inactive) | > 100 µM (inactive) | > 100 µM (inactive) | > 100 µM (inactive) | 30.7 µM (inactive) |  |
| COC(=O)C1=NN2c3ccccc3CN([C@@H](C)c3ccccc3)C(=O)[C@@H]2C1 | 32.4 µM (inactive) | 50.7 µM (inactive) | 87.3 µM (inactive) | 23.2 µM (inactive) | 24.6 µM (inactive) | 25.5 µM (inactive) | 91.8 µM (inactive) | > 100 µM (inactive) | 52.1 µM (inactive) | 15 µM (inactive) | 46.6 µM (inactive) | 30.5 µM (inactive) | 23.9 µM (inactive) | 34.8 µM (inactive) | 28.7 µM (inactive) | 25.7 µM (inactive) | 64.1 µM (inactive) |  |
| Nc1c(Cl)cc(-c2nc3ccccc3s2)cc1Cl | > 100 µM (inactive) | 0.501 µM (active) | > 100 µM (inactive) |  | > 100 µM (inactive) |  | 0.288 µM (active) | > 100 µM (inactive) |  | > 100 µM (inactive) | > 100 µM (inactive) | > 100 µM (inactive) | > 100 µM (inactive) | 0.522 µM (active) | > 100 µM (inactive) | > 100 µM (inactive) | 0.328 µM (active) | > 100 µM (inactive) |
| CC[C@H](C)C1=C(OC(C)=O)[N@+]2([O-])Oc3ccc(-c4c(O)c(O)c(-c5ccc(OC(C)=O)cc5)c(OC(C)=O)c4OC(C)=O)cc3O[C@]2([C@@H](C)CC)C(=O)N1O | 10.8 µM (inactive) | 20.4 µM (inactive) | 11.1 µM (inactive) | 26.3 µM (inactive) | 16.9 µM (inactive) | 17.5 µM (inactive) | 7.85 µM (inactive) | 17.3 µM (inactive) | 22.9 µM (inactive) | 13.2 µM (inactive) | 29.6 µM (inactive) | > 50 µM (inactive) | 15.9 µM (inactive) | 19.4 µM (inactive) | > 50 µM (inactive) |  | 17 µM (inactive) |  |
| COc1cccc(/N=N/C(=N/NC(=O)c2ccc(C)cc2)c2ccc(N(CCC#N)CCC#N)cc2OC)c1 | > 100 µM (inactive) | 8.05 µM (inactive) | > 100 µM (inactive) | > 100 µM (inactive) | > 100 µM (inactive) | > 100 µM (inactive) | > 100 µM (inactive) | > 100 µM (inactive) | 24.4 µM (inactive) | > 100 µM (inactive) | > 100 µM (inactive) | 7.14 µM (inactive) |  | > 100 µM (inactive) | > 100 µM (inactive) | > 100 µM (inactive) | > 100 µM (inactive) |  |
| C/C=C/C1OC(O)(C(C)C(O)[C@H](C)C2OC(=O)/C(OC)=C/C(C)=C/[C@@H](C)[C@@H](O)[C@@H](C)C(O)C(C)C/C(C)=C/C=C/C2OC)C[C@@H](OC2CC(O)C(OC(N)=O)C(C)O2)C1C (stereo not given in full) | < 0.01 µM (active) | < 0.01 µM (active) | < 0.01 µM (active) | < 0.01 µM (active) | < 0.01 µM (active) | < 0.01 µM (active) | 0.131 µM (active) | 2.47 µM (inactive) |  | < 0.01 µM (active) |  | < 0.01 µM (active) | < 0.01 µM (active) | < 0.01 µM (active) | < 0.01 µM (active) | < 0.01 µM (active) | < 0.01 µM (active) | < 0.01 µM (active) |
| Cn1c2ccc(Cl)cc2c2ccc3c(c21)C(=O)C=CC3=O | > 10 µM (inactive) | > 10 µM (inactive) | > 10 µM (inactive) | > 10 µM (inactive) | > 10 µM (inactive) | > 10 µM (inactive) | > 10 µM (inactive) | > 10 µM (inactive) | > 10 µM (inactive) | 6.44 µM (inactive) |  | > 10 µM (inactive) | 8.49 µM (inactive) | > 10 µM (inactive) | > 10 µM (inactive) | 3.88 µM (inactive) | > 10 µM (inactive) | > 10 µM (inactive) |
| COc1cc(C=C2N=C(c3ccccc3)N(n3c(-c4ccccc4)nc4ccccc4c3=O)C2=O)cc(OC)c1OC | 22.2 µM (inactive) | 45.9 µM (inactive) | 31.9 µM (inactive) | 48.3 µM (inactive) | 16.4 µM (inactive) | 21.6 µM (inactive) |  | 35.4 µM (inactive) | 38.9 µM (inactive) | 30 µM (inactive) | 12.1 µM (inactive) | 20.1 µM (inactive) | 49.1 µM (inactive) | 22 µM (inactive) | 21.1 µM (inactive) | 48.5 µM (inactive) | 32.5 µM (inactive) | 23.1 µM (inactive) |
| CCCc1nc(Cl)c(Cl)c(Cl)n1 | 9.68 µM (inactive) | > 71.9 µM (inactive) | 14.8 µM (inactive) | 10.7 µM (inactive) | 23.2 µM (inactive) | 3.82 µM (inactive) | > 100 µM (inactive) | 53.6 µM (inactive) | 31.8 µM (inactive) | 12.4 µM (inactive) | 19.2 µM (inactive) | 32.7 µM (inactive) | 15.4 µM (inactive) | 16.1 µM (inactive) |  | 8.81 µM (inactive) | 17.4 µM (inactive) | 4.28 µM (inactive) |
| CCC(=O)Nc1ncnc2ncn(C(=O)CC)c12 | > 100 µM (inactive) | > 100 µM (inactive) | > 100 µM (inactive) | > 100 µM (inactive) | > 100 µM (inactive) | > 100 µM (inactive) | > 100 µM (inactive) | > 100 µM (inactive) | > 100 µM (inactive) | > 100 µM (inactive) | > 100 µM (inactive) | > 100 µM (inactive) |  | > 100 µM (inactive) | > 100 µM (inactive) |  | > 100 µM (inactive) | > 100 µM (inactive) |
| COc1ccccc1-c1nc[nH]c1-c1ccccc1OC | 31.8 µM (inactive) | 22.5 µM (inactive) | 40.3 µM (inactive) | 31 µM (inactive) | 33.4 µM (inactive) | 16.8 µM (inactive) | 27.7 µM (inactive) | 36.1 µM (inactive) | 37.9 µM (inactive) | 29.2 µM (inactive) | 24.5 µM (inactive) | 25.3 µM (inactive) |  | 24.8 µM (inactive) | 28.5 µM (inactive) |  | 29 µM (inactive) | 14.6 µM (inactive) |
| NC(C(F)(F)F)(C(F)(F)F)P(=O)(Cc1ccccc1)Cc1ccccc1 | > 100 µM (inactive) | > 100 µM (inactive) | > 100 µM (inactive) | > 100 µM (inactive) | > 100 µM (inactive) | > 100 µM (inactive) |  | > 100 µM (inactive) | > 100 µM (inactive) | > 100 µM (inactive) | 28.9 µM (inactive) | > 100 µM (inactive) | > 100 µM (inactive) | > 100 µM (inactive) | > 100 µM (inactive) | > 100 µM (inactive) | > 100 µM (inactive) | 55.6 µM (inactive) |

Reference: ChEMBL document CHEMBL1201862, “PubChem BioAssay data set” (2004)
